Source: PubChem BioAssay AID602205 (Sanford-Burnham Center for Chemical Genomics, 2012)
Calls of active or inactive are those of the source. No rule for the calls is given here.

Molecular target: Ubiquitin-conjugating enzyme E2 N (Homo sapiens) (UniProt P61088)
Test: inhibition of UBC13-driven polyubiquitin chain formation – biochemical, TR-FRET, set 3, SAR follow-up (AID 602205)
Details: TR-FRET polyubiquitination assay

Sequence of Ubiquitin-conjugating enzyme E2 N (Homo sapiens) (P61088 whole entry, looked up): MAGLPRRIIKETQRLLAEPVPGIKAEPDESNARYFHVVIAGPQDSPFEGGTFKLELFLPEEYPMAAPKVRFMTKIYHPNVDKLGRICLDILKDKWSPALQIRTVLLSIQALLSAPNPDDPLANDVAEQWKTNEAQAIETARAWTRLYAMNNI

Compound | IC50
Fc1ccccc1N1CCN(c2ncnc3c2nc2n3CCCC2)CC1 | > 100 µM (inactive)
COc1cc(OC)c(NC(=O)C2CCN(c3ncnc4c3nc3n4CCCCC3)CC2)cc1Cl | > 100 µM (inactive)
CCOc1ccc(CCNC(=O)CCCCCN2C(=O)c3ccccc3C2=O)cc1OCC | > 100 µM (inactive)
CC1CN(S(=O)(=O)c2ccc(NC(=O)CCCCCN3C(=O)c4ccccc4C3=O)cc2)CC(C)O1 (centres undefined) | > 100 µM (inactive)
Cc1ccc(NC(=O)C2CCN(c3ncnc4c3nc3n4CCCCC3)CC2)cc1C | inactive
O=C(CCCCCN1C(=O)c2ccccc2C1=O)NCCc1ccccc1 | > 100 µM (inactive)
O=C(Nc1cc(F)ccc1F)C1CCN(c2ncnc3c2nc2n3CCCCC2)CC1 | inactive
c1ccc(CN2CCN(c3ncnc4c3nc3n4CCCC3)CC2)cc1 | > 100 µM (inactive)
c1nc(N2CCC(N3CCCCC3)CC2)c2nc3n(c2n1)CCCC3 | > 100 µM (inactive)
COc1cc(Cl)c(C)cc1NC(=O)C1CCN(c2ncnc3c2nc2n3CCCCC2)CC1 | > 100 µM (inactive)
O=C(Nc1ccc(CN2CCCCC2)cc1)C1CCN(c2ncnc3c2nc2n3CCCCC2)CC1 | > 100 µM (inactive)
Cc1ccc(NC(=O)C2CCN(c3ncnc4c3nc3n4CCCCC3)CC2)cc1F | inactive
Cc1ccc(Cl)cc1N1CCN(c2ncnc3c2nc2n3CCCC2)CC1 | > 100 µM (inactive)

The next lines start with the values.

IC50 | Compound
inactive | Cc1cc(Cl)ccc1NC(=O)C1CCN(c2ncnc3c2nc2n3CCCCC2)CC1
inactive | Cc1c(Cl)cccc1NC(=O)C1CCN(c2ncnc3c2nc2n3CCCCC2)CC1
> 100 µM (inactive) | Cc1ccc(NC(=O)C2CCN(c3ncnc4c3nc3n4CCCCC3)CC2)c(Cl)c1
> 100 µM (inactive) | COc1ccc(NC(=O)C2CCN(c3ncnc4c3nc3n4CCCCC3)CC2)cc1Cl
inactive | COc1ccc(Cl)cc1NC(=O)C1CCN(c2ncnc3c2nc2n3CCCCC2)CC1
9.63 µM | O=C(Nc1cccc(Cl)c1)C1CCN(c2ncnc3c2nc2n3CCCCC2)CC1
